Assay results reported in the supplement of paper PMC5908809.

Key:
[1] = test system: normal NK cells expanded with K562-aAPC; experiment: drug sensitivity score (DSS) (DSS units); higher = more sensitive; extreme values may be limits of the assay; conditions: 72 h; IL-2 2.5 ng/mL
Protocol: (§1)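 Drug sensitivity and resistance testing on K562-aAPC-expanded normal NK cells: 5 concentrations (10-fold steps over a 10,000-fold range), 72 h at 37 °C, viability by CellTiter-Glo normalised to DMSO and benzethonium chloride controls; DSS from the fitted curve.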

[2] = test system: normal primary NK cells, pool 1 (3 donors) (IL-2 2.5 ng/mL); experiment: as above; conditions: 72 h
NK-YS (IL-2 2.5 ng/mL) [3] = experiment: as above; conditions: 72 h
[4] = test system: normal primary NK cells, pool 2 (3 donors) (IL-2 2.5 ng/mL); experiment: as above; conditions: 72 h
[5] = test system: normal primary NK cells, pool 3 (3 donors) (IL-2 2.5 ng/mL); experiment: as above; conditions: 72 h
YT (IL-2 2.5 ng/mL) [6] = experiment: as above; conditions: 72 h
NK-92 (IL-2 2.5 ng/mL) [7] = experiment: as above; conditions: 72 h
DERL-7 (IL-2 2.5 ng/mL) [8] = experiment: as above; conditions: 72 h
NKL (IL-2 2.5 ng/mL) [9] = experiment: as above; conditions: 72 h
KHYG-1 (IL-2 2.5 ng/mL) [10] = experiment: as above; conditions: 72 h
[11] = test system: normal primary NK cells, pool 1 (3 donors), resting (IL-2 0 ng/mL); experiment: as above; conditions: 72 h
SNK-6 (IL-2 2.5 ng/mL) [12] = experiment: as above; conditions: 72 h
IMC-1 (IL-2 20 ng/mL) [13] = experiment: as above; conditions: 72 h
KAI3 (IL-2 2.5 ng/mL) [14] = experiment: as above; conditions: 72 h
[15] = test system: normal primary NK cells, pool 1 (3 donors) (IL-2 2.5 ng/mL); experiment: percent inhibition of viability; higher = more inhibition; conditions: 72 h
NK-YS (IL-2 2.5 ng/mL) [16] = experiment: as above; conditions: 72 h
[17] = test system: normal primary NK cells, pool 2 (3 donors) (IL-2 2.5 ng/mL); experiment: as above; conditions: 72 h
[18] = test system: normal primary NK cells, pool 3 (3 donors) (IL-2 2.5 ng/mL); experiment: as above; conditions: 72 h
YT (IL-2 2.5 ng/mL) [19] = experiment: as above; conditions: 72 h
NK-92 (IL-2 2.5 ng/mL) [20] = experiment: as above; conditions: 72 h
DERL-7 (IL-2 2.5 ng/mL) [21] = experiment: as above; conditions: 72 h
NKL (IL-2 2.5 ng/mL) [22] = experiment: as above; conditions: 72 h
KHYG-1 (IL-2 2.5 ng/mL) [23] = experiment: as above; conditions: 72 h
[24] = test system: normal primary NK cells, pool 1 (3 donors), resting (IL-2 0 ng/mL); experiment: as above; conditions: 72 h
SNK-6 (IL-2 2.5 ng/mL) [25] = experiment: as above; conditions: 72 h
IMC-1 (IL-2 20 ng/mL) [26] = experiment: as above; conditions: 72 h
KAI3 (IL-2 2.5 ng/mL) [27] = experiment: as above; conditions: 72 h
[28] = test system: normal NK cells expanded with K562-aAPC; experiment: as above; conditions: 72 h, IL-2 2.5 ng/mL
Protocol: as §1

COc1ccc(-c2nc(N3CCOCC3)c3sc(CN(C)c4ncc(C(=O)NO)cn4)cc3n2)cn1 [CUDC-907] (max concentration tested 10000 nM)
Conditions | drug sensitivity score
DERL-7 (IL-2 2.5 ng/mL) [8] | 46.5
IMC-1 (IL-2 20 ng/mL) [13] | 35.3
KAI3 (IL-2 2.5 ng/mL) [14] | 43.4
KHYG-1 (IL-2 2.5 ng/mL) [10] | 44.4
NK-92 (IL-2 2.5 ng/mL) [7] | 42.9
NK-YS (IL-2 2.5 ng/mL) [3] | 37.1
NKL (IL-2 2.5 ng/mL) [9] | 43.8
SNK-6 (IL-2 2.5 ng/mL) [12] | 37.9
YT (IL-2 2.5 ng/mL) [6] | 34.6
[1] | 37.1
[2] | 38
[4] | 37.7
[5] | 36.7
[11] | 38.4

percent inhibition of viability [%]
Conditions | 1 nM | 10 nM | 100 nM | 1000 nM | 10000 nM
DERL-7 (IL-2 2.5 ng/mL) [21] | 23.5 | 99.7 | 100 | 100 | 99.7
IMC-1 (IL-2 20 ng/mL) [26] | -4.89 | 34.3 | 100 | 101 | 100
KAI3 (IL-2 2.5 ng/mL) [27] | 52.6 | 75.5 | 102 | 104 | 98.9
KHYG-1 (IL-2 2.5 ng/mL) [23] | 16.1 | 94.5 | 103 | 103 | 98.7
NK-92 (IL-2 2.5 ng/mL) [20] | 23.2 | 83.5 | 102 | 103 | 97
NK-YS (IL-2 2.5 ng/mL) [16] | 6.56 | 55.9 | 101 | 103 | 99
NKL (IL-2 2.5 ng/mL) [22] | 56.5 | 77 | 103 | 104 | 99.2
SNK-6 (IL-2 2.5 ng/mL) [25] | 0.83 | 63.5 | 99.8 | 100 | 100
YT (IL-2 2.5 ng/mL) [19] | 5.94 | 27.4 | 103 | 104 | 99.1
[15] | 2.74 | 68.2 | 96.4 | 97.7 | 97.2
[17] | 1.42 | 74.2 | 94.2 | 94 | 94.8
[18] | -5.77 | 56.8 | 97.2 | 96.7 | 98.1
[24] | 15.9 | 72.7 | 90.1 | 91 | 91.7
[28] | 10.6 | 55.4 | 100 | 99.9 | 99.9

Cc1nc(N)sc1-c1ccnc(Nc2ccc(N3CCOCC3)cc2)n1 [CYC-116] (max concentration tested 10000 nM)
Conditions | drug sensitivity score
DERL-7 (IL-2 2.5 ng/mL) [8] | 12.4
IMC-1 (IL-2 20 ng/mL) [13] | 9.98
KAI3 (IL-2 2.5 ng/mL) [14] | 10.1
KHYG-1 (IL-2 2.5 ng/mL) [10] | 14.2
NK-92 (IL-2 2.5 ng/mL) [7] | 8.76
NK-YS (IL-2 2.5 ng/mL) [3] | 14.1
NKL (IL-2 2.5 ng/mL) [9] | 9.96
SNK-6 (IL-2 2.5 ng/mL) [12] | 16
YT (IL-2 2.5 ng/mL) [6] | 9.36
[1] | 11.5
[2] | 6.12
[4] | 6.33
[5] | 4.4
[11] | 0.44

percent inhibition of viability [%]
Conditions | 1 nM | 10 nM | 100 nM | 1000 nM | 10000 nM
DERL-7 (IL-2 2.5 ng/mL) [21] | -3.32 | -3.55 | 6.03 | 60.9 | 84.2
IMC-1 (IL-2 20 ng/mL) [26] | -0.53 | -4.65 | 3.54 | 44.8 | 83.8
KAI3 (IL-2 2.5 ng/mL) [27] | -1.55 | -6.85 | 1.16 | 39.8 | 89.7
KHYG-1 (IL-2 2.5 ng/mL) [23] | -0.11 | -0.55 | 5.34 | 70.7 | 106
NK-92 (IL-2 2.5 ng/mL) [20] | -10.5 | -10.4 | 3.17 | 39.8 | 72.8
NK-YS (IL-2 2.5 ng/mL) [16] | -2.66 | -0.98 | 6.79 | 70.6 | 70.8
NKL (IL-2 2.5 ng/mL) [22] | -16 | -8.68 | -5.36 | 42.6 | 83.9
SNK-6 (IL-2 2.5 ng/mL) [25] | 0.9 | -6.56 | 15.3 | 73.9 | 72.3
YT (IL-2 2.5 ng/mL) [19] | 0.75 | 1.77 | 4.66 | 29.5 | 94.7
[15] | -7.14 | -2.39 | -10.8 | 13.2 | 71.7
[17] | -11.2 | -13.2 | -3.79 | 16.1 | 68.8
[18] | -12.5 | -8.65 | 4.23 | 3.35 | 71.4
[24] | -4.6 | 6.4 | -9.95 | -18.7 | 23.6
[28] | -2.89 | -0.2 | 2.84 | 57.5 | 82
